Experiment [1] has as its target T1, CRTH2 (Homo sapiens, UniProt Q9Y5Y4).
T1 sequence (Q9Y5Y4 1-395): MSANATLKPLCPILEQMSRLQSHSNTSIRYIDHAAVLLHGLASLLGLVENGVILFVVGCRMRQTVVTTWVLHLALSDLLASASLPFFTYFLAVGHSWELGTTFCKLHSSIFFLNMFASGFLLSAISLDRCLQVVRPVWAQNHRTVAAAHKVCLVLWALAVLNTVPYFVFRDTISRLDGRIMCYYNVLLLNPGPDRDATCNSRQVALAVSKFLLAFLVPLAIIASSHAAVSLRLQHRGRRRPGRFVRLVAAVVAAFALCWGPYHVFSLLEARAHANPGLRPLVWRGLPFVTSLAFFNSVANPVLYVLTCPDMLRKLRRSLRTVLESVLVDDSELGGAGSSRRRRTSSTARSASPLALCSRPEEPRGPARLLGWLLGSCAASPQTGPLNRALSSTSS
Nature of the experiment: Cellular Dielectric Spectroscopy (CHO-CRTH2 cells). It is filed as cell-based. Also on record: expressed in transfected cells; host or cells: CHO-CRTH2 cells. The settings on record: antagonist mode, fixed concentration of PGD2 (EC80). In outline: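 Label-free cellular dielectric spectroscopy measured impedance changes (dZ) in CHO-CRTH2 cells. The cells were grown in HAM's F12 with 10% foetal calf serum and 400 μg/ml Geneticin, plated at 100000 cells/well in 96W electrode microplates, and kept 24 hours at 37° C. in 5% CO2. They were then washed twice with 135 μl of HBSS/10 mM HEPES pH 7.4/1% DMSO buffer. Signal was the max-min amplitude, with basal and maximum activity defined without and with PGD2 (EC80).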

Experiment [2] addresses T1, CRTH2. In words: [35S]GTPγS binding assay (CHO-CRTH2 cell membranes). It is filed as biochemical. Also on record: expressed in transfected cells; host or cells: CHO-CRTH2 cells. The settings on record: for IC50: antagonist mode, fixed concentration of PGD2 (EC80); for Emax: inverse agonists, 100% of Emax = activity with 1 μM PGD2. Here is the method: Adherent CHO cells expressing hCRTH2 (Euroscreen, Belgium) were cultured in 225 cm^2 cell culture flasks (Corning, USA) in 30 ml of medium. After two rinses of phosphate buffered saline (PBS), cells were harvested in 10 ml of PBS containing 1 mM EDTA, centrifuged at 500×g for 5 min at 4° C. and frozen at −80° C. The pellet was re-suspended in 50 mM Tris-HCl, pH 7.4, 2 mM EDTA, 250 mM Sucrose, containing protease inhibitor cocktail tablets, (Complete EDTA-free, Roche, Germany) and incubated 30 min at 4° C. Cells were disrupted by nitrogen cavitation (Parr Instruments, USA) at 4° C. (800 p.s.i. for 30 min), and centrifuged at 500×g for 10 min at 4° C. Pellet containing nuclei and cellular debris was discarded and supernatant was centrifuged 60 min at 4° C. at 45000×g. Membrane pellet was re-suspended in storage buffer (10 mM HEPES/KOH pH 7.4, 1 mM EDTA, 250 mM sucrose, protease inhibitor cocktail tablets) using Dounce homogenization and frozen in liquid nitrogen, and stored at −80° C.
The [^35S]GTPγS assay measures the increase in guanine nucleotide exchange at G-proteins in cell membranes, resulting from agonist (PGD2) binding to CRTH2. This process can be monitored in vitro by incubating cell membranes containing G-proteins and CRTH2 with GDP and [^35S]GTPγS, a radiolabeled, hydrolysis-resistant analogue of GTP (see, Harrison et al., Life Sciences 74, 489-508, 2003). The addition of a Compounds of Formula (I) results in binding to CRTH2 and thus in an inhibition of agonist binding, which can be monitored as inhibition of the stimulation of GTP/GDP exchange.
Briefly, Compounds of Formula (I) are incubated in 96-well scintillating white polystyrene plates (Perkin Elmer, USA) in a final volume of 200 μl containing 20 mM HEPES/KOH pH 7.4, 3 mM MgCl2, 10 μg/ml Saponin, 5 μM GDP, 75 mM NaCl and 2% of dimethylsulphoxide (DMSO). Reaction is triggered by the addition of 5-10 μg of CHO-CRTH2 cell membranes and 0.15 nM [^35S]GTPγS. After 60 min incubation at 30° C., reaction is stopped by centrifugation at 700×g, at 4° C. for 10 minutes and supernatant is removed. The radioactivity coming from the [^35S]GTPγS bound on centrifuged cell membranes is recorded using a 1450 Micro-beta scintillation counter. For IC50 determination, increasing concentrations of compounds are incubated in presence of a fixed concentration of PGD2 (EC80). For EC50 measurements, compounds are incubated without addition of PGD2. Basal [^35S]GTPγS activity is determined without addition of any ligands or compounds. 100% [^35S]GTPγS activity is measured by the addition of 1 μM of PGD2.
A general note: GTPγS resists hydrolysis and so accumulates on activated G proteins.

Usually IC50 stands for the concentration that inhibits the measured activity by half. As for `CCCS(=O)(=O)c1cccc(C#Cc2cc(Cl)ccc2OCC(=O)O)c1` [Example 17, (4-chloro-2-{[3-(propylsulfonyl)phenyl]ethynyl}phenoxy)acetic acid], the IC50 against CRTH2 [1] was determined as 22 nM.
Take `CN(C)S(=O)(=O)c1cncc(C#Cc2cc(Cl)ccc2OCC(=O)O)c1` [Example 35, [4-chloro-2-({5-[(dimethylamino)sulfonyl]pyridin-3-yl}ethynyl)phenoxy]acetic acid]: the IC50 amounted to 126 nM on CRTH2 [2] and 23 nM on CRTH2 [1].
Consider `CCCS(=O)(=O)c1ccc(C)c(C#Cc2cc(Cl)ccc2OCC(=O)O)c1` [Example 38, (4-chloro-2-{[2-methyl-5-(propylsulfonyl)phenyl]ethynyl}phenoxy)acetic acid], for which the IC50 was 6 nM on CRTH2 [2] and 32 nM against CRTH2 [1].
For `CCCS(=O)(=O)c1ccc(F)c(C#Cc2cc(Cl)ccc2OCC(=O)O)c1` [Example 89, (4-chloro-2-{[2-fluoro-5-(propylsulfonyl)phenyl]ethynyl}phenoxy)acetic acid], half-maximal inhibition on CRTH2 [1] (IC50) required 29 nM.
Still for that read-out and setting: to `CCCS(=O)(=O)c1ccc(Cl)c(C#Cc2cc(Cl)ccc2OCC(=O)O)c1` [Example 101, (4-chloro-2-{[2-chloro-5-(propylsulfonyl)phenyl]ethynyl}phenoxy)acetic acid] belongs 38 nM.
Turning to `CC(C)S(=O)(=O)c1ccc(F)c(C#Cc2cc(Cl)ccc2OCC(=O)O)c1` [Example 102, (4-chloro-2-{[2-fluoro-5-(isopropylsulfonyl)phenyl]ethynyl}phenoxy)acetic acid], the IC50 on CRTH2 [2] was found to be 4 nM; on CRTH2 [1], 16 nM.
Consider `CC(C)S(=O)(=O)c1ccc(Cl)c(C#Cc2cc(Cl)ccc2OCC(=O)O)c1` [Example 103, (4-chloro-2-{[2-chloro-5-(isopropylsulfonyl)phenyl]ethynyl}phenoxy)acetic acid], for which the IC50 at CRTH2 [1] was 44 nM.
As a reminder, the Emax is the greatest response seen or fitted, relative to the assay's reference. In the case of `CN(C)S(=O)(=O)c1ccc(F)c(C#Cc2cc(Cl)ccc2OCC(=O)O)c1` [Example 107, [4-chloro-2-({5-[(dimethylamino)sulfonyl]-2-fluorophenyl}ethynyl)phenoxy]acetic acid], the Emax at CRTH2 [2] was -13%. The IC50 against CRTH2 [1] turned out to be 23 nM.
Consider `O=C(O)COc1ccc(Cl)cc1C#Cc1ccc2c(c1)S(=O)(=O)c1ccccc1-2` [Example 154, {4-chloro-2-[(5,5-dioxidodibenzo[b,d]thien-3-yl)ethynyl]phenoxy}acetic acid], for which the Emax at CRTH2 [2] is -17%.

The values above are taken from patent publication US8273769B2, “Phenoxy acetic acid derivatives” (Merck Serono SA, priority 2009, dated 2012).
